Assay results reported in patent US8258134B2, “Pyridazinone glucokinase activators” (Hoffmann-La Roche Inc., priority 2008, dated 2012).

Each molecule was assayed against T1, Recombinant human liver GK1 (GST-GK) (Homo sapiens, UniProt P35557) (assay: Glucokinase in vitro assay (G6PDH-coupled NADH generation, OD340)). Details: 30 uM test compound, 5 mM D-glucose.
T1 construct: made in house; host or cells: E. coli
T1 sequence (P35557 1-466 isoform P35557-2): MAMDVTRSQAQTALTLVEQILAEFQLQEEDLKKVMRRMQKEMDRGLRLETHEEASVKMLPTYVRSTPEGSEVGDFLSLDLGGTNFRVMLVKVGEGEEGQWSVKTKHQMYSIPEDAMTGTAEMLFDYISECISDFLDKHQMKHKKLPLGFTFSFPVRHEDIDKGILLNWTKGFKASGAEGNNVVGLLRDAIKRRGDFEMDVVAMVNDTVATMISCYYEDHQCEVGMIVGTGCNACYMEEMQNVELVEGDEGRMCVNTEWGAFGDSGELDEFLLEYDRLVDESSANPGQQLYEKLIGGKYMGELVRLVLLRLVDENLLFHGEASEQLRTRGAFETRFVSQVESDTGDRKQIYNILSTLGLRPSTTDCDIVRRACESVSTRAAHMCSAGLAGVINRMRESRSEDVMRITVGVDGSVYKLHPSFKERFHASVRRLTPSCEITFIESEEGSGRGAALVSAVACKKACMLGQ
Assay type: biochemical
Method in brief: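 GST-tagged recombinant GK1 expressed in E. coli, run at 30° C, pH 7.1 Hepes with 5 mM D-glucose, 1 mM ATP and 1.8 mM NAD, G6PDH-coupled. Compounds were in 10% DMSO final, with a 10 min pre-incubation before enzyme addition. OD340/min rate measured; SC1.5 is the activator concentration giving a 50% increase in activity.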

fold activation @ 30 uM	SMILES
1.3 fold	Cn1ccc(NC(=O)C(CC2CCCC2)n2ncccc2=O)n1 (centres unmarked) [Example 82, 3-Cyclopentyl-N-(1-methyl-1H-pyrazol-3-yl)-2-(6-oxo-6H-pyridazin-1-yl)-propionamide]
1.3 fold	Cn1ccc(NC(=O)C(CC2CCCC2)n2nc(Oc3ccccc3)ccc2=O)n1 (centres unmarked) [Example 85, 3-cyclopentyl-N-(1-methyl-1H-pyrazol-3-yl)-2-(6-oxo-3-phenoxy-6H-pyridazin-1-yl)-propionamide]
1.28 fold	CC1CCCC(C)C1Oc1cnn(C(CC2CCCC2)C(=O)Nc2ccn(C[C@@H](O)CO)n2)c(=O)c1 (stereo partly drawn) [Example 91, 3-Cyclopentyl-N-[1-((R)-2,3-dihydroxy-propyl)-1H-pyrazol-3-yl]-2-[4-(2,6-dimethyl-cyclohexyloxy)-6-oxo-6H-pyridazin-1-yl]-propionamide]

SMILES	fold activation @ 30 uM
O=C(Nc1ccn(C[C@@H](O)CO)n1)C(CC1CCCC1)n1ncc(OC2CCC2)cc1=O (stereo partly drawn) [Example 94, 2-(4-Cyclobutoxy-6-oxo-6H-pyridazin-1-yl)-3-cyclopentyl-N-[1-((R)-2,3-dihydroxy-propyl)-1H-pyrazol-3-yl]-propionamide]	1.33 fold

Same assay, conditions: 5 mM D-glucose, 30° C., pH 7.1, 10% DMSO

SMILES	SC1.5 average (concentration of activator that produced a 50% increase in the activity of GK)
O=C(O)c1ccc(NC(=O)[C@@H](CC2CCCC2)n2ncc(Oc3ccccc3F)cc2=O)nc1 [Example 75B, 6-{(R)-3-Cyclopentyl-2-[4-(2-fluoro-phenoxy)-6-oxo-6H-pyridazin-1-yl]-propionylamino}-nicotinic acid]	0.796 µM
O=C(Nc1cnccn1)C(CC1CCCC1)n1ncc(Oc2ccccc2C(F)(F)F)cc1=O (centres unmarked) [Example 76, 3-Cyclopentyl-2-[6-oxo-4-(2-trifluoromethyl-phenoxy)-6H-pyridazin-1-yl]-N-pyrazin-2-yl-propionamide]	0.376 µM
O=C(Nc1nccs1)C(CC1CCCC1)n1ncc2ccccc2c1=O (centres unmarked) [Example 83, 3-Cyclopentyl-2-(1-oxo-1H-phthalazin-2-yl)-N-thiazol-2-yl-propionamide]	8.783 µM
CC(C)(O)Cn1ccc(NC(=O)C(CC2CCCC2)n2ncc3ccccc3c2=O)n1 (centres unmarked) [Example 84, 3-Cyclopentyl-N-[1-(2-hydroxy-2-methyl-propyl)-1H-pyrazol-3-yl]-2-(1-oxo-1H-phthalazin-2-yl)-propionamide]	15.983 µM
Cn1ccc(NC(=O)C(CC2CCCC2)n2nc(Oc3ccccc3)ccc2=O)n1 (centres unmarked) [Example 85, 3-cyclopentyl-N-(1-methyl-1H-pyrazol-3-yl)-2-(6-oxo-3-phenoxy-6H-pyridazin-1-yl)-propionamide]	> 30 µM
Cc1ccc(C)c(Oc2cnn(C(CC3CCCC3)C(=O)Nc3ccn(CC(C)(C)O)n3)c(=O)c2)c1C (centres unmarked) [Example 88, 3-Cyclopentyl-N-[1-(2-hydroxy-2-methyl-propyl)-1H-pyrazol-3-yl]-2-[6-oxo-4-(2,3,6-trimethyl-phenoxy)-6H-pyridazin-1-yl]-propionamide]	0.204 µM
CC1CCCC(C)C1Oc1cnn(C(CC2CCCC2)C(=O)Nc2ccn(C[C@@H](O)CO)n2)c(=O)c1 (stereo partly drawn) [Example 91, 3-Cyclopentyl-N-[1-((R)-2,3-dihydroxy-propyl)-1H-pyrazol-3-yl]-2-[4-(2,6-dimethyl-cyclohexyloxy)-6-oxo-6H-pyridazin-1-yl]-propionamide]	> 30 µM
O=C(Nc1ccn(C[C@@H](O)CO)n1)C(CC1CCCC1)n1ncc(OC2CCC2)cc1=O (stereo partly drawn) [Example 94, 2-(4-Cyclobutoxy-6-oxo-6H-pyridazin-1-yl)-3-cyclopentyl-N-[1-((R)-2,3-dihydroxy-propyl)-1H-pyrazol-3-yl]-propionamide]	> 30 µM
O=C(Nc1ccn(C[C@@H](O)CO)n1)C(CC1CCCC1)n1ncc(Oc2ncccc2F)cc1=O (stereo partly drawn) [Example 95, 3-Cyclopentyl-N-[1-((R)-2,3-dihydroxy-propyl)-1H-pyrazol-3-yl]-2-[4-(3-fluoro-pyridin-2-yloxy)-6-oxo-6H-pyridazin-1-yl]-propionamide]	12.633 µM
O=C(Nc1ccn(C[C@@H](O)CO)n1)C(CC1CCCC1)n1ncc(Oc2cccc3[nH]ccc23)cc1=O (stereo partly drawn) [Example 96, 3-Cyclopentyl-N-[1-((R)-2,3-dihydroxy-propyl)-1H-pyrazol-3-yl]-2-[4-(1H-indol-4-yloxy)-6-oxo-6H-pyridazin-1-yl]-propionamide]	0.067 µM
Cc1cc(C)nc(Oc2cnn(C(CC3CCCC3)C(=O)Nc3ccn(C[C@@H](O)CO)n3)c(=O)c2)n1 (stereo partly drawn) [Example 102, 3-Cyclopentyl-N-[1-((R)-2,3-dihydroxy-propyl)-1H-pyrazol-3-yl]-2-[4-(4,6-dimethyl-pyrimidin-2-yloxy)-6-oxo-6H-pyridazin-1-yl]-propionamide]	0.56 µM

Next, values leading:

SC1.5 average (concentration of activator that produced a 50% increase in the activity of GK)	SMILES
21.07 µM	CN(c1ccccc1)c1cnn(C(CC2CCCC2)C(=O)Nc2ccn(CC(C)(C)O)n2)c(=O)c1 (centres unmarked) [Example 77, 3-Cyclopentyl-N-[1-(2-hydroxy-2-methyl-propyl)-1H-pyrazol-3-yl]-2-[4-(methyl-phenyl-amino)-6-oxo-6H-pyridazin-1-yl]-propionamide]
14.436 µM	CC(C)(O)Cn1ccc(NC(=O)C(CC2CCCC2)n2ncccc2=O)n1 (centres unmarked) [Example 78, 3-Cyclopentyl-N-[1-(2-hydroxy-2-methyl-propyl)-1H-pyrazol-3-yl]-2-(6-oxo-6H-pyridazin-1-yl)-propionamide]
14.605 µM	O=C(Nc1nccs1)C(CC1CCCC1)n1ncccc1=O (centres unmarked) [Example 79, 3-Cyclopentyl-2-(6-oxo-6H-pyridazin-1-yl)-N-thiazol-2-yl-propionamide]
3.208 µM	COc1cnn(C(CC2CCCC2)C(=O)Nc2nccs2)c(=O)c1 (centres unmarked) [Example 80, 3-Cyclopentyl-2-(4-methoxy-6-oxo-6H-pyridazin-1-yl)-N-thiazol-2-yl-propionamide]
> 30 µM	Cn1ccc(NC(=O)C(CC2CCCC2)n2ncccc2=O)n1 (centres unmarked) [Example 82, 3-Cyclopentyl-N-(1-methyl-1H-pyrazol-3-yl)-2-(6-oxo-6H-pyridazin-1-yl)-propionamide]
0.568 µM	CC(C)(O)Cn1ccc(NC(=O)C(CC2CCCC2)n2ncc(Oc3cccc4c3OC(C)(C)C4)cc2=O)n1 (centres unmarked) [Example 89, 3-Cyclopentyl-2-[4-(2,2-dimethyl-2,3-dihydro-benzofuran-7-yloxy)-6-oxo-6H-pyridazin-1-yl]-N-[1-(2-hydroxy-2-methyl-propyl)-1H-pyrazol-3-yl]-propionamide]
0.5 µM	CC(C)(O)Cn1ccc(NC(=O)C(CC2CCCC2)n2ncc(Oc3ccccc3C(C)(C)C)cc2=O)n1 (centres unmarked) [Example 90, 2-[4-(2-tert-Butyl-phenoxy)-6-oxo-6H-pyridazin-1-yl]-3-cyclopentyl-N-[1-(2-hydroxy-2-methyl-propyl)-1H-pyrazol-3-yl]-propionamide]
0.135 µM	O=C(Nc1ccn(C[C@@H](O)CO)n1)C(CC1CCCC1)n1ncc(Oc2cccc(Cl)c2Cl)cc1=O (stereo partly drawn) [Example 92, 3-Cyclopentyl-2-[4-(2,3-dichloro-phenoxy)-6-oxo-6H-pyridazin-1-yl]-N-[1-((R)-2,3-dihydroxy-propyl)-1H-pyrazol-3-yl]-propionamide]
0.114 µM	Cc1ccc(Oc2cnn(C(CC3CCCC3)C(=O)Nc3ccn(C[C@@H](O)CO)n3)c(=O)c2)c2c1CCC2 (stereo partly drawn) [Example 93, 3-Cyclopentyl-N-[1-((R)-2,3-dihydroxy-propyl)-1H-pyrazol-3-yl]-2-[4-(7-methyl-indan-4-yloxy)-6-oxo-6H-pyridazin-1-yl]-propionamide]
1.895 µM	Cc1occc(=O)c1Oc1cnn(C(CC2CCCC2)C(=O)Nc2ccn(C[C@@H](O)CO)n2)c(=O)c1 (stereo partly drawn) [Example 97, 3-Cyclopentyl-N-[1-((R)-2,3-dihydroxy-propyl)-1H-pyrazol-3-yl]-2-[4-(2-methyl-4-oxo-4H-pyran-3-yloxy)-6-oxo-6H-pyridazin-1-yl]-propionamide]
0.244 µM	O=C(Nc1ccn(C[C@@H](O)CO)n1)C(CC1CCCC1)n1ncc(Oc2ccccc2OC(F)(F)F)cc1=O (stereo partly drawn) [Example 98, 3-Cyclopentyl-N-[1-((R)-2,3-dihydroxy-propyl)-1H-pyrazol-3-yl]-2-[6-oxo-4-(2-trifluoromethoxy-phenoxy)-6H-pyridazin-1-yl]-propionamide]
1.277 µM	Cc1cccc(Oc2cnn(C(CC3CCCC3)C(=O)Nc3ccn(C[C@@H](O)CO)n3)c(=O)c2)n1 (stereo partly drawn) [Example 99, 3-Cyclopentyl-N-[1-((R)-2,3-dihydroxy-propyl)-1H-pyrazol-3-yl]-2-[4-(6-methyl-pyridin-2-yloxy)-6-oxo-6H-pyridazin-1-yl]-propionamide]
0.101 µM	Cc1ccc(F)c(Oc2cnn(C(CC3CCCC3)C(=O)Nc3ccn(C[C@@H](O)CO)n3)c(=O)c2)c1 (stereo partly drawn) [Example 100, 3-Cyclopentyl-N-[1-((R)-2,3-dihydroxy-propyl)-1H-pyrazol-3-yl]-2-[4-(2-fluoro-5-methyl-phenoxy)-6-oxo-6H-pyridazin-1-yl]-propionamide]
0.732 µM	O=C(Nc1ccn(C[C@@H](O)CO)n1)C(CC1CCCC1)n1ncc(Oc2ccccc2CCO)cc1=O (stereo partly drawn) [Example 101, 3-Cyclopentyl-N-[1-((R)-2,3-dihydroxy-propyl)-1H-pyrazol-3-yl]-2-{4-[2-(2-hydroxy-ethyl)-phenoxy]-6-oxo-6H-pyridazin-1-yl}-propionamide]
